# Measurements: patent publication US8821864B2, “Compounds and methods useful for detection and treatment of cancer” (Roche MTM Laboratories AG, priority 2002, dated 2014)
# Tested on: HLA-A2.1 expressing cell lines presenting frameshift peptides
# Test: Cytotoxicity assay of CTL directed against cells displaying frameshift peptides
# Assay type: cell-based, human
# Settings: cold targets: T2 cells pulsed with peptide, inhibitor:target ratio 50:1
# Protocol: (§1) (FSP02); The antigen specificity of the FSP02 CTL line was tested in the presence of unlabeled cold targets, T2 cells pulsed with FSP02 (open squares) at an inhibitor:target ratio of 50:1. Lysis without cold targets is shown as a control (closed squares). All data are shown as the mean and standard deviation from 3 replicate wells. For experimental details see example 6.
# as §1, with “(FSP06);” for “(FSP02);”, “FSP06” for “FSP02”, “pulsed either” for “pulsed”
# CTL bulk cultures and/or CTL clones obtained according to the method described in Example 1 were tested for their cytotoxicity as follows:
# Due to the limited amount of cell material clones were in some experiments pooled for the determination of the cytotoxicity. […]
row,Sequence,lysis of target cells by FSP CTL line (antigen specificity)
1,"RLSSCVPVA [FSP02, frameshift peptide from TGF-betaRII (−1), start amino acid 131]",Frameshift peptide specific and HLA-A2-restricted lysis of target cells
2,"SLYKFSPFPL [FSP06, frameshift peptide from OGT (−1), start amino acid 128]",Frameshift peptide specific and HLA-A2-restricted lysis of target cells
